Reference: patent publication US11918582B2 (RAPT Therapeutics, Inc., priority 2021, dated 2024)
Where a name gives a salt, the structure may show the parent alone.

Target: T1, human HPK1 (MAP4K1) (Homo sapiens, UniProt Q92918)
T1 construct: Recombinant human HPK1 kinase domain was obtained from ThermoFisher (Cat. #PV6357) and SignalChem (Cat. #M23-11G); purchased ThermoFisher; SignalChem PV6357; M23-11G
T1 sequence (Q92918 17-274 limits assumed): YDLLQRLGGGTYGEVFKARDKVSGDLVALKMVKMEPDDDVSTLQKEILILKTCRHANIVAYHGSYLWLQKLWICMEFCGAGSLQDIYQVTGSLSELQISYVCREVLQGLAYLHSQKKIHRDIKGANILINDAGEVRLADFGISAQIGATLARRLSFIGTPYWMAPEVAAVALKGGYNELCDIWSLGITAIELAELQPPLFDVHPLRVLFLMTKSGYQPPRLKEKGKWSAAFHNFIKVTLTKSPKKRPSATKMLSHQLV
Experiment: Biochemical assay for activity against HPK1 (ADP-Glo, MBP substrate)
Conditions: recombinant human HPK1 kinase domain, 1 nM enzyme, ADP-Glo luminescence
Method in brief: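 Recombinant human HPK1 kinase domain (1 nM solution) preincubated 15 min at room temperature with compounds in pH 7.5 HEPES buffer with NaCl, TCEP, MgCl2, Tween-20, BSA. MBP substrate with ATP added, reaction run 2 h at room temperature. ADP formation read by ADP-Glo luminescence to give IC50.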

Structure (SMILES) | IC50 [µM]
COc1cc2c(cc1Nc1ncc3c(C)nn([C@H]4CC[C@H](O)CC4)c3n1)CN(C)CC2 [Example 50, trans-4-(6-((6-methoxy-2-methyl-1,2,3,4-tetrahydroisoquinolin-7-yl)amino)-3-methyl-1H-pyrazolo[3,4-d]pyrimidin-1-yl)cyclohexan-1-ol] | < 0.1
COc1cc2c(cc1Nc1ncc3c(C)nn([C@H]4CC[C@@H](C(N)=O)CC4)c3n1)CN(C)CC2 [Example 51, (cis)-4-(6-((6-methoxy-2-methyl-1,2,3,4-tetrahydroisoquinolin-7-yl)amino)-3-methyl-1H-pyrazolo[3,4-d]pyrimidin-1-yl)cyclohexane-1-carboxamide] | < 0.1
CNC(=O)[C@H]1CC[C@@H](n2nc(C)c3cnc(Nc4cc5c(cc4OC)CCN(C)C5)nc32)CC1 [Example 52, (cis)-4-(6-((6-methoxy-2-methyl-1,2,3,4-tetrahydroisoquinolin-7-yl)amino)-3-methyl-1H-pyrazolo[3,4-d]pyrimidin-1-yl)-N-methylcyclohexane-1-carboxamide] | < 0.1
CNC(=O)[C@@H]1CCC[C@@H](n2ncc3cnc(Nc4cc5c(cc4OC)CCN(C)C5)nc32)C1 [Example 53, (1R,3R)-3-(6-((6-methoxy-2-methyl-1,2,3,4-tetrahydroisoquinolin-7-yl)amino)-1H-pyrazolo[3,4-d]pyrimidin-1-yl)-N-methylcyclohexane-1-carboxamide] | < 0.1
COc1cc2c(cc1Nc1ncc3cnn([C@H]4CC[C@@H](C(=O)N(C)C)CC4)c3n1)CN(C)CC2 [Example 54, (1s,4s)-4-(6-((6-methoxy-2-methyl-1,2,3,4-tetrahydroisoquinolin-7-yl)amino)-1H-pyrazolo[3,4-d]pyrimidin-1-yl)-N,N-dimethylcyclohexane-1-carboxamide] | < 0.1
COc1cc2c(cc1Nc1ncc3cnn([C@H]4CC[C@H](C(=O)N(C)C)CC4)c3n1)CN(C)CC2 [Example 55, (1r,4r)-4-(6-((6-methoxy-2-methyl-1,2,3,4-tetrahydroisoquinolin-7-yl)amino)-1H-pyrazolo[3,4-d]pyrimidin-1-yl)-N,N-dimethylcyclohexane-1-carboxamide] | < 0.1
COc1cc2c(cc1Nc1ncc3c(C)nn([C@@H]4CCC[C@@H](C(N)=O)C4)c3n1)CN(C)CC2 [Example 56, (1R,3R)-3-(6-((6-methoxy-2-methyl-1,2,3,4-tetrahydroisoquinolin-7-yl)amino)-3-methyl-1H-pyrazolo[3,4-d]pyrimidin-1-yl)cyclohexane-1-carboxamide] | < 0.1
CN1CCc2c(cc(Nc3ncc4cnn([C@H]5CC[C@H](CO)CC5)c4n3)cc2C(F)(F)F)C1 [Example 57, ((1r,4r)-4-(6-((2-methyl-5-(trifluoromethyl)-1,2,3,4-tetrahydroisoquinolin-7-yl)amino)-1H-pyrazolo[3,4-d]pyrimidin-1-yl)cyclohexyl)methanol] | < 0.1
CN1CCc2c(cc(Nc3ncc4cnn([C@H]5CC[C@H](O)CC5)c4n3)cc2C(F)(F)F)C1 [Example 58, (1r,4r)-4-(6-((2-methyl-5-(trifluoromethyl)-1,2,3,4-tetrahydroisoquinolin-7-yl)amino)-1H-pyrazolo[3,4-d]pyrimidin-1-yl)cyclohexan-1-ol] | < 0.1
CNC(=O)[C@H]1CC[C@H](n2ncc3cnc(Nc4cc5c(cc4OC)CCN(C)C5)nc32)CC1 [Example 60, (1r,4r)-4-(6-((6-methoxy-2-methyl-1,2,3,4-tetrahydroisoquinolin-7-yl)amino)-1H-pyrazolo[3,4-d]pyrimidin-1-yl)-N-methylcyclohexane-1-carboxamide] | < 0.1
COc1cc2c(cc1Nc1ncc3cnn(CC4CC(CO)C4)c3n1)CN(C)CC2 (stereo not drawn) [Example 61, (3-((6-((6-methoxy-2-methyl-1,2,3,4-tetrahydroisoquinolin-7-yl)amino)-1H-pyrazolo[3,4-d]pyrimidin-1-yl)methyl)cyclobutyl)methanol] | < 0.1
CC(=O)N1CCC[C@H]1Cn1ncc2cnc(Nc3cc4c(c(C(F)(F)F)c3)CCN(C)C4)nc21 [Example 62, (S)-1-(2-((6-((2-methyl-5-(trifluoromethyl)-1,2,3,4-tetrahydroisoquinolin-7-yl)amino)-1H-pyrazolo[3,4-d]pyrimidin-1-yl)methyl)182thenone182ne-1-yl)ethan-1-one] | < 0.1
COc1cc2c(cc1Nc1ncc3cnn([C@H]4CCC[C@H](CO)C4)c3n1)CN(C)CC2 [Example 63, ((1S,3S)-3-(6-((6-methoxy-2-methyl-1,2,3,4-tetrahydroisoquinolin-7-yl)amino)-1H-pyrazolo[3,4-d]pyrimidin-1-yl)cyclohexyl)methanol hydrochloride] | < 0.1
COc1cc2c(cc1Nc1ncc3cnn([C@H]4C[C@H](CO)C4)c3n1)CN(C)CC2 [Example 65, trans-[3-[6-[(6-methoxy-2-methyl-3,4-dihydro-1H-isoquinolin-7-yl)amino]pyrazolo[3,4-d]pyrimidin-1-yl]cyclobutyl]methanol] | < 0.1
COc1cc2c(cc1Nc1ncc3cnn([C@H]4C[C@@H](CO)C4)c3n1)CN(C)CC2 [Example 66, cis-[3-[6-[(6-methoxy-2-methyl-3,4-dihydro-1H-isoquinolin-7-yl)amino]pyrazolo[3,4-d]pyrimidin-1-yl]cyclobutyl]methanol] | < 0.1
COc1cc2c(cc1Nc1ncc3cnn([C@H]4CC[C@@H](CO)CC4)c3n1)CN(C)CC2 [Example 67, cis-[4-[6-[(6-methoxy-2-methyl-3,4-dihydro-1H-isoquinolin-7-yl)amino]pyrazolo[3,4-d]pyrimidin-1-yl]cyclohexyl]methanol] | < 0.1
COc1cc2c(cc1Nc1ncc3c(C)nn([C@H]4CC[C@H](CO)CC4)c3n1)CN(C)CC2 [Example 68, trans-[4-[6-[(6-methoxy-2-methyl-3,4-dihydro-1H-isoquinolin-7-yl)amino]-3-methyl-pyrazolo[3,4-d]pyrimidin-1-yl]cyclohexyl]methanol] | < 0.1
COc1cc2c(cc1Nc1ncc3cnn([C@H]4CC[C@H](NC(C)=O)CC4)c3n1)CN(C)CC2 [Example 69, trans-N-[4-[6-[(6-methoxy-2-methyl-3,4-dihydro-1H-isoquinolin-7-yl)amino]pyrazolo[3,4-d]pyrimidin-1-yl]cyclohexyl]acetamide] | < 0.1
COc1cc2c(cc1Nc1ncc3cnn([C@H]4C[C@](C)(C(=O)OC)C4)c3n1)CN(C)CC2 [Example 70, trans-methyl 3-[6-[(6-methoxy-2-methyl-3,4-dihydro-1H-isoquinolin-7-yl)amino]pyrazolo[3,4-d]pyrimidin-1-yl]-1-methyl-cyclobutanecarboxylate] | < 0.1
COc1cc2c(cc1Nc1ncc3cnn([C@H]4C[C@](C)(C(=O)O)C4)c3n1)CN(C)CC2 [Example 71, 3-[6-[(6-methoxy-2-methyl-3,4-dihydro-1H-isoquinolin-7-yl)amino]pyrazolo[3,4-d]pyrimidin-1-yl]-1-methyl-cyclobutanecarboxylic acid] | < 0.1
CNC(=O)[C@]1(C)C[C@@H](n2ncc3cnc(Nc4cc5c(cc4OC)CCN(C)C5)nc32)C1 [Example 73, trans-3-[6-[(6-methoxy-2-methyl-3,4-dihydro-1H-isoquinolin-7-yl)amino]pyrazolo[3,4-d]pyrimidin-1-yl]-N,1-methyl-cyclobutanecarboxamide] | < 0.1
COc1cc2c(cc1Nc1ncc3cnn([C@H]4CC[C@H](NC(=O)CO)CC4)c3n1)CN(C)CC2 [Example 74, trans-2-hydroxy-N-[4-[6-[(6-methoxy-2-methyl-3,4-dihydro-1H-isoquinolin-7-yl)amino]pyrazolo[3,4-d]pyrimidin-1-yl]cyclohexyl]acetamide] | < 0.1
COc1cc2c(cc1Nc1ncc3cnn([C@H]4C[C@](C)(CO)C4)c3n1)CN(C)CC2 [Example 76, trans-[3-[6-[(6-methoxy-2-methyl-3,4-dihydro-1H-isoquinolin-7-yl)amino]pyrazolo[3,4-d]pyrimidin-1-yl]-1-methyl-cyclobutyl]methanol] | < 0.1
COc1cc2c(cc1Nc1ncc3cnn(C4CC(CO)(CO)C4)c3n1)CN(C)CC2 [Example 77, [1-(hydroxymethyl)-3-[6-[(6-methoxy-2-methyl-3,4-dihydro-1H-isoquinolin-7-yl)amino]pyrazolo[3,4-d]pyrimidin-1-yl]cyclobutyl]dimethanol] | < 0.1
COc1cc2c(cc1Nc1ncc3c(C)nn([C@H]4CC[C@@H](CO)CC4)c3n1)CN(C)CC2 [Example 78, cis-[4-[6-[(6-methoxy-2-methyl-3,4-dihydro-1H-isoquinolin-7-yl)amino]-3-methyl-pyrazolo[3,4-d]pyrimidin-1-yl]cyclohexyl]methanol] | < 0.1
COc1cc2c(cc1Nc1ncc3cnn([C@H]4CC[C@H](NS(C)(=O)=O)CC4)c3n1)CN(C)CC2 [Example 79, trans-N-[4-[6-[(6-methoxy-2-methyl-3,4-dihydro-1H-isoquinolin-7-yl)amino]pyrazolo[3,4-d]pyrimidin-1-yl]cyclohexyl]methanesulfonamide] | < 0.1
COC(=O)N[C@H]1CC[C@H](n2ncc3cnc(Nc4cc5c(cc4OC)CCN(C)C5)nc32)CC1 [Example 80, trans-methyl N-[4-[6-[(6-methoxy-2-methyl-3,4-dihydro-1H-isoquinolin-7-yl)amino]pyrazolo[3,4-d]pyrimidin-1-yl]cyclohexyl]carbamate] | < 0.1
